Assay results: US10689327B2, “Prodrug amino acid derivative” (TAISHO PHARMACEUTICALS CO., LTD., priority 2016, dated 2020)

Assay: Stability test in solution (pH 1.2 and pH 6.5)
Format: physicochemical
Details: 1 hour; for Compound's percent residue (%) pH 6.5: 20 mM phosphate buffer pH 6.5, 37° C.; for Compound's percent residue (%) pH 1.2: hydrochloric acid solution pH 1.2, 37° C.
Experimental: Test 2: Stability Test in Solution
A test to determine the stability of Inventive Compounds (I-A) or (I) in a hydrochloric acid solution (pH 1.2) and 20 mM phosphate buffer (pH 6.5) was conducted in accordance with the following method.
A compound was dissolved in a hydrochloric acid solution (pH 1.2) containing hydrochloric acid and sodium chloride or a 20 mM phosphate buffer (pH 6.5) containing disodium hydrogenphosphate, sodium dihydrogenphosphate and sodium chloride to prepare a solution with a concentration of about 50 ng/mL (near the saturated concentration when the compound was not dissolved). The solution was incubated at 37° C. for 1 hour and the compound's concentration before and after the incubation was quantified by high-performance liquid chromatography to calculate the percent residue of the compound. Compounds having low solubility were assessed as being not applicable.
The percent residues of representative compounds in the hydrochloric acid solution (pH 1.2) and the 20 mM phosphate buffer (pH 6.5) are shown in the following Table 2.

Compound's percent residue (%) pH 6.5 [%]	Compound's percent residue (%) pH 1.2 [%]	Compound
100	106	CC(OC(=O)O[C@@H]1C[C@@H]2CC[C@@]1(C)C2(C)C)OC(=O)[C@@]1(N)[C@H]2[C@@H](C[C@H]1OCc1ccc(F)cc1)[C@]2(F)C(=O)O (stereo partly drawn) [Example 17-B, (1R,2R,3R,5R,6R)-2-Amino-6-fluoro-3-[(4-fluorophenyl)methoxy]-2-({1-[({[(1S,2R,4S)-1,7,7-trimethylbicyclo[2.2.1]heptan-2-yl]oxy}carbonyl)oxy]ethoxy}carbonyl)bicyclo[3.1.0]hexane-6-carboxylic acid]
99	98	CC(OC(=O)O[C@H]1C[C@H]2CC[C@]1(C)C2(C)C)OC(=O)[C@@]1(N)[C@H]2[C@@H](C[C@H]1OCc1ccc(F)cc1)[C@]2(F)C(=O)O (stereo partly drawn) [Example 19-A, (1R,2R,3R,5R,6R)-2-Amino-6-fluoro-3-[(4-fluorophenyl)methoxy]-2-({1-[({[(1R,2S,4R)-1,7,7-trimethylbicyclo[2.2.1]heptan-2-yl]oxy}carbonyl)oxy]ethoxy}carbonyl)bicyclo[3.1.0]hexane-6-carboxylic acid]
100	106	CCCO[C@@H]1C[C@@H]2[C@H]([C@]1(N)C(=O)OC(C)OC(=O)O[C@H]1C[C@H]3CC[C@]1(C)C3(C)C)[C@@]2(F)C(=O)O (stereo partly drawn) [Example 20, (1R,2R,3R,5R,6R)-2-Amino-6-fluoro-3-propoxy-2-({1-[({[(1R,2S,4R)-1,7,7-trimethylbicyclo[2.2.1]heptan-2-yl]oxy}carbonyl)oxy]ethoxy}carbonyl)bicyclo[3.1.0]hexane-6-carboxylic acid]
99	98	COc1cc([C@@H](C)O[C@@H]2C[C@@H]3[C@H]([C@]2(N)C(=O)O[C@@H](C)OC(=O)C24CC5CC(CC(C5)C2)C4)[C@@]3(F)C(=O)O)ccc1F [Example 25, (1R,2R,3R,5R,6R)-2-amino-6-fluoro-3-[(1R)-1-(4-fluoro-3-methoxyphenyl)ethoxy]-2-({(1S)-1-[(tricyclo[3.3.1.1^3,7]decane-1-carbonyl)oxy]ethoxy}carbonyl)bicyclo[3.1.0]hexane-6-carboxylic acid]
94	97	C[C@@H](OC(=O)C12CC3CC(CC(C3)C1)C2)OC(=O)[C@@]1(N)[C@H]2[C@@H](C[C@H]1OCc1ccc(Cl)cn1)[C@]2(F)C(=O)O [Example 26, (1R,2R,3R,5R,6R)-2-amino-3-[(5-chloropyridin-2-yl)methoxy]-6-fluoro-2-({(1S)-1-[(tricyclo[3.3.1.1^3,7]decane-1-carbonyl)oxy]ethoxy}carbonyl)bicyclo[3.1.0]hexane-6-carboxylic acid]
101	100	C[C@@H](OC(=O)C12CC3CC(CC(C3)C1)C2)OC(=O)[C@@]1(N)[C@H]2[C@@H](C[C@H]1OCc1ccc(Cl)nc1)[C@]2(F)C(=O)O [Example 27, (1R,2R,3R,5R,6R)-2-amino-3-[(6-chloropyridin-3-yl)methoxy]-6-fluoro-2-({(1S)-1-[(tricyclo[3.3.1.1^3,7]decane-1-carbonyl)oxy]ethoxy}carbonyl)bicyclo[3.1.0]hexane-6-carboxylic acid]

Continued, compound first:

Compound	Compound's percent residue (%) pH 6.5 [%]	Compound's percent residue (%) pH 1.2 [%]
N[C@]1(C(=O)OCOC(=O)C23CC4CC(CC(C4)C2)C3)[C@H]2[C@@H](C[C@H]1OCc1ccc(F)c(F)c1)[C@]2(F)C(=O)O [Example 12, (1R,2R,3R,5R,6R)-2-Amino-3-[(3,4-difluorophenyl)methoxy]-6-fluoro-2-({[(tricyclo[3.3.1.1^3,7]decane-1-carbonyl)oxy]methoxy}carbonyl)bicyclo[3.1.0]hexane-6-carboxylic acid]	102	101
CCCO[C@@H]1C[C@@H]2[C@H]([C@]1(N)C(=O)O[C@@H](C)OC(=O)O[C@@H]1C[C@H](C)CC[C@H]1C(C)C)[C@@]2(F)C(=O)O [Example 13, (1R,2R,3R,5R,6R)-2-amino-6-fluoro-2-({(1R)-1-[({[(1R,2S,5R)-5-methyl-2-(propan-2-yl)cyclohexyl]oxy}carbonyl)oxy]ethoxy}carbonyl)-3-propoxybicyclo[3.1.0]hexane-6-carboxylic acid]	98	98
CCCO[C@@H]1C[C@@H]2[C@H]([C@]1(N)C(=O)O[C@H](C)OC(=O)O[C@@H]1C[C@H](C)CC[C@H]1C(C)C)[C@@]2(F)C(=O)O [Example 14, (1R,2R,3R,5R,6R)-2-Amino-6-fluoro-2-({(1S)-1-[({[(1R,2S,5R)-5-methyl-2-(propan-2-yl)cyclohexyl]oxy}carbonyl)oxy]ethoxy}carbonyl)-3-propoxybicyclo[3.1.0]hexane-6-carboxylic acid]	97	97
CCCO[C@@H]1C[C@@H]2[C@H]([C@]1(N)C(=O)OC(C)OC(=O)O[C@H]1C[C@@H](C)CC[C@@H]1C(C)C)[C@@]2(F)C(=O)O (stereo partly drawn) [Example 15-A, (1R,2R,3R,5R,6R)-2-Amino-6-fluoro-2-({1-[({[(1S,2R,5S)-5-methyl-2-(propan-2-yl)cyclohexyl]oxy}carbonyl)oxy]ethoxy}carbonyl)-3-propoxybicyclo[3.1.0]hexane-6-carboxylic acid]	104	104
CC(OC(=O)O[C@H]1C[C@@H](C)CC[C@@H]1C(C)C)OC(=O)[C@@]1(N)[C@H]2[C@@H](C[C@H]1OCc1ccc(F)cc1)[C@]2(F)C(=O)O (stereo partly drawn) [Example 16-B, (1R,2R,3R,5R,6R)-2-Amino-6-fluoro-3-[(4-fluorophenyl)methoxy]-2-({1-[({[(1S,2R,5S)-5-methyl-2-(propan-2-yl)cyclohexyl]oxy}carbonyl)oxy]ethoxy}carbonyl)bicyclo[3.1.0]hexane-6-carboxylic acid]	93	101
CCCO[C@@H]1C[C@@H]2[C@H]([C@]1(N)C(=O)OC(C)OC(=O)O[C@@H]1C[C@@H]3CC[C@@]1(C)C3(C)C)[C@@]2(F)C(=O)O (stereo partly drawn) [Example 18-B, (1R,2R,3R,5R,6R)-2-Amino-6-fluoro-3-propoxy-2-({1-[({[(1S,2R,4S)-1,7,7-trimethylbicyclo[2.2.1]heptan-2-yl]oxy}carbonyl)oxy]ethoxy}carbonyl)bicyclo[3.1.0]hexane-6-carboxylic acid]	112	
CC(OC(=O)O[C@H]1C(C)(C)[C@H]2CC[C@]1(C)C2)OC(=O)[C@@]1(N)[C@H]2[C@@H](C[C@H]1OCc1ccc(F)cc1)[C@]2(F)C(=O)O (stereo partly drawn) [Example 21, (1R,2R,3R,5R,6R)-2-Amino-6-fluoro-3-[(4-fluorophenyl)methoxy]-2-({1-[({[(1R,2R,4S)-1,3,3-trimethylbicyclo[2.2.1]heptan-2-yl]oxy}carbonyl)oxy]ethoxy}carbonyl)bicyclo[3.1.0]hexane-6-carboxylic acid]	98	101
C[C@@H](OC(=O)C12CC3CC(CC(C3)C1)C2)OC(=O)[C@@]1(N)[C@H]2[C@@H](C[C@H]1OCc1ccc(C(F)(F)F)cc1)[C@]2(F)C(=O)O [Example 22, (1R,2R,3R,5R,6R)-2-amino-6-fluoro-2-({(1S)-1-[(tricyclo[3.3.1.1^3,7]decane-1-carbonyl)oxy]ethoxy}carbonyl)-3-{[4-(trifluoromethyl)phenyl]methoxy}bicyclo[3.1.0]hexane-6-carboxylic acid]	94	96
C[C@@H](OC(=O)C12CC3CC(CC(C3)C1)C2)OC(=O)[C@@]1(N)[C@H]2[C@@H](C[C@H]1OCc1cccc(F)c1)[C@]2(F)C(=O)O [Example 23, (1R,2R,3R,5R,6R)-2-amino-6-fluoro-3-[(3-fluorophenyl)methoxy]-2-({(1S)-1-[(tricyclo[3.3.1.1^3,7]decane-1-carbonyl)oxy]ethoxy}carbonyl)bicyclo[3.1.0]hexane-6-carboxylic acid]	100	101
C[C@@H](OC(=O)C12CC3CC(CC(C3)C1)C2)OC(=O)[C@@]1(N)[C@H]2[C@@H](C[C@H]1OCc1cccc(Cl)n1)[C@]2(F)C(=O)O [Example 24, (1R,2R,3R,5R,6R)-2-amino-3-[(6-chloropyridin-2-yl)methoxy]-6-fluoro-2-({(1S)-1-[(tricyclo[3.3.1.1^3,7]decane-1-carbonyl)oxy]ethoxy}carbonyl)bicyclo[3.1.0]hexane-6-carboxylic acid]	96	95
CC(C)CCO[C@@H]1C[C@@H]2[C@H]([C@]1(N)C(=O)O[C@@H](C)OC(=O)C13CC4CC(CC(C4)C1)C3)[C@@]2(F)C(=O)O [Example 29, (1R,2R,3R,5R,6R)-2-amino-6-fluoro-3-(3-methylbutoxy)-2-({(1S)-1-[(tricyclo[3.3.1.1^3,7]decane-1-carbonyl)oxy]ethoxy}carbonyl)bicyclo[3.1.0]nexane-6-carboxylic acid]	103	102
